Measurements as given in ChEMBL document CHEMBL1150565, “Cheilanthane sesterterpenes, protein kinase inhibitors, from a marine sponge of the genus Ircinia” (J Nat Prod, 2001).

Columns and labels:
[1] = biological target: Ribosomal protein S6 kinase alpha-5 (Homo sapiens, UniProt O75582); assay: Inhibition of MSK1 assessed as [33P] incorporation by scintillation proximity assay
[2] = biological target: MAP kinase-activated protein kinase 2 (Homo sapiens, UniProt P49137); assay: Inhibition of MAPKAPK2 assessed as [33P] incorporation by scintillation proximity assay
MAP kinase-activated protein kinase 2, sequence (P49137 whole entry): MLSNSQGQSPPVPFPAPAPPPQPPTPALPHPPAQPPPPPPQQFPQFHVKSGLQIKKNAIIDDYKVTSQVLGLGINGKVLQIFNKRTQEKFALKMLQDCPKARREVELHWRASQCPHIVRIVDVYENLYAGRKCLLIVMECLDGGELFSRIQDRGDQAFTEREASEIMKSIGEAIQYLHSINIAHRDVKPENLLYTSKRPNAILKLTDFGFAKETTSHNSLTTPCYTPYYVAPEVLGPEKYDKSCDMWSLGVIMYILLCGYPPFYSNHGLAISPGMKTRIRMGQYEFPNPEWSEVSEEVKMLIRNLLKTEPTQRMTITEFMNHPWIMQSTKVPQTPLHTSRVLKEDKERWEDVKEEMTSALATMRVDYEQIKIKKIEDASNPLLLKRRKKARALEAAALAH

Ribosomal protein S6 kinase alpha-5, sequence (O75582 whole entry): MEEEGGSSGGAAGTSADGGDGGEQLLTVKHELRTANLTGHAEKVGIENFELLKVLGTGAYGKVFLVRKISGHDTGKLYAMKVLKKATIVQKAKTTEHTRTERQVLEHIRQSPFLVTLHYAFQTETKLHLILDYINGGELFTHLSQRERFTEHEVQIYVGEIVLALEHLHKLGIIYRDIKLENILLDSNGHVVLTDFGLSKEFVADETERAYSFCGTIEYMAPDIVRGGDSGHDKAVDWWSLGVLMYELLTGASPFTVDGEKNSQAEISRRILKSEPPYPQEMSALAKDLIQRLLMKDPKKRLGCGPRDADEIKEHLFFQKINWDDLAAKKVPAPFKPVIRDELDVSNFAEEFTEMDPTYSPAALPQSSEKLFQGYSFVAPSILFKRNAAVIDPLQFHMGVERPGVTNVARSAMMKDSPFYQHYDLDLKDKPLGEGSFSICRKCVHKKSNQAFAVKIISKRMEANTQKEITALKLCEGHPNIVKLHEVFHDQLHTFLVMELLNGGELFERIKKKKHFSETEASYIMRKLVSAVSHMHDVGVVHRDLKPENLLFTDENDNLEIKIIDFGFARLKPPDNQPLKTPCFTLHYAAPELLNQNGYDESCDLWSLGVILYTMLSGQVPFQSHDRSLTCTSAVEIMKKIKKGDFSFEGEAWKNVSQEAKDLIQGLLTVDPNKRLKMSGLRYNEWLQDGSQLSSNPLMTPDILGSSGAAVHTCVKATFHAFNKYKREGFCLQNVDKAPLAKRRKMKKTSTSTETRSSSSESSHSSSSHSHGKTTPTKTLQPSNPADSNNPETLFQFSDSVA

| SMILES | IC50 [1] [µM] | IC50 [2] [µM] |
| --- | --- | --- |
| C=C1CC[C@H]2[C@@](C)(CC[C@H]3C(C)(C)CCC[C@]23C)[C@@H]1CC(O)C1=CC(=O)OC1O (mixture of isomers) | 4 | 90 |
| C=C1CC[C@H]2[C@@](C)(CC[C@H]3C(C)(C)CCC[C@]23C)[C@@H]1/C=C/C1=CC(=O)OC1O (mixture of isomers) | 4 | 90 |
| CC1(C)CCC[C@]2(C)[C@H]3CC[C@]4(C)O[C@@H](C5=CC(=O)OC5O)C[C@H]4[C@]3(C)CC[C@@H]12 (mixture of isomers) | 4 | 90 |
| C=C1CC[C@H]2[C@@](C)(CC[C@H]3C(C)(C)CCC[C@]23C)[C@@H]1CC1OC(=O)C=C1CO (stereo partly drawn) | 4 | 90 |
